Assay [1] deals with T1, HDAC6 human recombinant (Homo sapiens, UniProt Q9UBN7).
T1 construct: purchased Calbiochem 382180
T1 sequence (Q9UBN7 1-1215): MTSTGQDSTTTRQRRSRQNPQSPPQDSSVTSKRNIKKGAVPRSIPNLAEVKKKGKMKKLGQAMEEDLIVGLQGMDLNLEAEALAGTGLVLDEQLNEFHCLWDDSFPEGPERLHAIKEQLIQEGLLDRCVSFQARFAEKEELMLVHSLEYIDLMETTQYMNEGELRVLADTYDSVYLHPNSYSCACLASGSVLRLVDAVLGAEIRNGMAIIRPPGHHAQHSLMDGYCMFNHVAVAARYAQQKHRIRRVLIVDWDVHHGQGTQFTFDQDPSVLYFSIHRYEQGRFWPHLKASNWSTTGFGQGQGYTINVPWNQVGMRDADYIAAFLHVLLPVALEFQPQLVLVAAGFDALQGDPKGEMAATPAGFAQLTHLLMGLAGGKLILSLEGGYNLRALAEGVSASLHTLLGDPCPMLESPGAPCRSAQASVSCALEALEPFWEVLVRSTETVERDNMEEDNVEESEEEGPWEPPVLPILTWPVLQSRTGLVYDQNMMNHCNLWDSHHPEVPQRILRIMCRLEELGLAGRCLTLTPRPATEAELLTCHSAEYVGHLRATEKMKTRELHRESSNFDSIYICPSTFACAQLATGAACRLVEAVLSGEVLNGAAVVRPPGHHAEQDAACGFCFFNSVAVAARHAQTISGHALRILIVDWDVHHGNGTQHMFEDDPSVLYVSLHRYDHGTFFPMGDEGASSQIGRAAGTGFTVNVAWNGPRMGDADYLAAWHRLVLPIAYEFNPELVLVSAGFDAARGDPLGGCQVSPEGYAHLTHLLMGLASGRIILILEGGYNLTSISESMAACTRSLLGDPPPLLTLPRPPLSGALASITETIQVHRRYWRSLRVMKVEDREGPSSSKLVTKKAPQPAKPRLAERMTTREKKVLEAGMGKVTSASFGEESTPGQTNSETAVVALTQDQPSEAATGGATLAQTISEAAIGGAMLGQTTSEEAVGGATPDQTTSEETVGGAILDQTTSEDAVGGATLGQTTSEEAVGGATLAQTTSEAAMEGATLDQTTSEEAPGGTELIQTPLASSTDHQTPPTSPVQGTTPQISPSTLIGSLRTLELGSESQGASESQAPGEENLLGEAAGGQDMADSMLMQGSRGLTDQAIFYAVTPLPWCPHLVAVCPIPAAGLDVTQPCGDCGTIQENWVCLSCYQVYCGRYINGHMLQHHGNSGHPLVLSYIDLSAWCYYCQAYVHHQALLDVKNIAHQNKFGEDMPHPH
The assay is described as follows: Inhibition of HDAC6 activity (fluorimetric assay). The assay is classed as biochemical. Particulars: test concentrations 0.1, 1, 10, 100 and 1000 nM; 37° C., 60 minutes. An outline of the steps:
(§1)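 HDAC1 tested with the kit assay mixture at 100, 1000 and 10000 nM compound; recombinant human HDAC6 at 0.1, 1, 10, 100 and 1000 nM. Reaction ran 60 min at 37° C, then developer was added for 30 min at 37° C and fluorescence quantified.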

Assay [2] deals with T2, HDAC1 (Homo sapiens, UniProt Q13547).
T2 construct: purchased Enzolifesciences BML-AK511
The assay is described as follows: Inhibition of HDAC1 activity (HDAC1 fluorimetric drug discovery assay kit). The assay is classed as biochemical. Particulars: test concentrations 100, 1000 and 10000 nM; 37° C., 60 minutes. An outline of the steps:
as §1

T2 sequence (Q13547 whole entry): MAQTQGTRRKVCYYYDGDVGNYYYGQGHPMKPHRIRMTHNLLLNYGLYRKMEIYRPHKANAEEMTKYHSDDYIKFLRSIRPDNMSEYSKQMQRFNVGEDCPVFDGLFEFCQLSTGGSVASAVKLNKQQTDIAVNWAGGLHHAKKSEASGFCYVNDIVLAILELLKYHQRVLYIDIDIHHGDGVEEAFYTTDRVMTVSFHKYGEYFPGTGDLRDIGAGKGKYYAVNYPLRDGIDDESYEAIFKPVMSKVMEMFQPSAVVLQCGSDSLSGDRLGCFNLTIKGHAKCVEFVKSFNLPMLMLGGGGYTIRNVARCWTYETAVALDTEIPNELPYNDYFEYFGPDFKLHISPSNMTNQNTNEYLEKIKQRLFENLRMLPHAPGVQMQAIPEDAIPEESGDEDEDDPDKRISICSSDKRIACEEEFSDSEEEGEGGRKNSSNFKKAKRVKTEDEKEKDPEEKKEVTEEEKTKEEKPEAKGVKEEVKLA

Usually IC50 stands for the concentration that gives 50% inhibition. `O=C(NO)c1ccc(Cn2ccc3cc(C4CCN(Cc5cccc(F)c5)CC4)cnc32)cc1` [Compound 781, 4-((5-(1-(3-fluorobenzyl)piperidin-4-yl)-1H-pyrrolo[2,3-b]pyridin-1-yl)methyl)-N-hydroxybenzamide]: the IC50 in assay [1] came to 18 nM; in assay [2] it was 2440 nM.

As to `CN1CCN(c2ccccc2CN2CCC(c3ccnc4c3ccn4Cc3ccc(C(=O)NO)cc3)CC2)CC1` [Compound 984, N-hydroxy-4-((4-(1-(2-(4-methylpiperazin-1-yl)benzyl)piperidin-4-yl)-1H-pyrrolo[2,3-b]pyridin-1-yl)methyl)benzamide], the results for the IC50 in assay [1] and in assay [2] were 7.6 nM and 530 nM, respectively.

As for `CC(C)(F)CN1CC=C(c2cnc3c(ccn3Cc3ccc(C(=O)NO)cc3)c2)CC1` [Compound 617, 4-((5-(1-(2-fluoro-2-methylpropyl)-1,2,3,6-tetrahydropyridin-4-yl)-1H-pyrrolo[2,3-b]pyridin-1-yl)methyl)-N-hydroxybenzamide], the results for the IC50 in assay [1] and in assay [2] were 9 nM and 4220 nM, respectively.

Regarding `CN1CCN(Cc2ccc(C(=O)N3CCC(c4cnc5c(ccn5Cc5ccc(C(=O)NO)cc5)c4)CC3)cc2)CC1` [Compound 898, N-hydroxy-4-((5-(1-(4-((4-methylpiperazin-1-yl)methyl)benzoyl)piperidin-4-yl)-1H-pyrrolo[2,3-b]pyridin-1-yl)methyl)benzamide], the IC50 in assay [1] is 6.2 nM; in assay [2], 780 nM.

For the compound `COc1cccc(CN2CCN(c3ccnc4c3ccn4Cc3ccc(C(=O)NO)cc3)CC2)c1` [Compound 846, N-hydroxy-4-((4-(4-(3-methoxybenzyl)piperazin-1-yl)-1H-pyrrolo[2,3-b]pyridin-1-yl)methyl)benzamide], the half-inhibitory concentration (IC50) was found to be 5.7 nM in assay [1] and 1410 nM in assay [2].

`C[C@@H]1CN(c2cnc3c(ccn3Cc3ccc(C(=O)NO)cc3)c2)C[C@H](C)N1CC(C)(C)F` [Compound 866, 4-((5-((3S,5R)-4-(2-fluoro-2-methylpropyl)-3,5-dimethylpiperazin-1-yl)-1H-pyrrolo[2,3-b]pyridin-1-yl)methyl)-N-hydroxybenzamide]: the IC50 in assay [1] turned out to be 12 nM; in assay [2], 1630 nM.

With `O=C(NO)c1ccc(Cn2ccc3cc(C4CCOCC4)cnc32)cc1` [Compound 635, N-hydroxy-4-((5-(tetrahydro-2H-pyran-4-yl)-1H-pyrrolo[2,3-b]pyridin-1-yl)methyl)benzamide], the half-maximal inhibitory concentration (IC50) in assay [1] came to 11 nM; in assay [2] it was 1170 nM.

For `O=C(NO)c1ccc(Cn2ccc3cc(C4CCN(Cc5ccc(-n6cnnc6)cc5)CC4)cnc32)cc1` [Compound 874, 4-((5-(1-(4-(4H-1,2,4-triazol-4-yl)benzyl)piperidin-4-yl)-1H-pyrrolo[2,3-b]pyridin-1-yl)methyl)-N-hydroxybenzamide], the IC50 in assay [1] came to 18.5 nM; in assay [2], 690 nM.

Turning to `O=C(NO)c1ccc(Cn2ccc3c(N4CCN(Cc5ccc(C(F)(F)F)cc5)CC4)ccnc32)cc1` [Compound 706, N-hydroxy-4-((4-(4-(4-(trifluoromethyl)benzyl)piperazin-1-yl)-1H-pyrrolo[2,3-b]pyridin-1-yl)methyl)benzamide], the IC50 came to 30 nM in assay [1] and 2330 nM in assay [2].

`COc1ccc(CN2CC3(CCN(c4ccnc5c4ccn5Cc4ccc(C(=O)NO)cc4)CC3)C2)cc1` [Compound 1023, N-hydroxy-4-((4-(2-(4-methoxybenzyl)-2,7-diazaspiro[3.5]nonan-7-yl)-1H-pyrrolo[2,3-b]pyridin-1-yl)methyl)benzamide]: the IC50 in assay [1] stood at 3.3 nM; in assay [2], 560 nM.

Regarding `CC(C)(C)OC(=O)N1CC=C(c2cc3c(ccn3Cc3ccc(C(=O)NO)cc3)cn2)CC1` [Compound 783, tert-butyl 4-(1-(4-(hydroxycarbamoyl)benzyl)-1H-pyrrolo[3,2-c]pyridin-6-yl)-5,6-dihydropyridine-1(2H)-carboxylate], the results for the IC50 in assay [1] and in assay [2] were 12 nM and 450 nM, respectively.

Turning to `O=C(NO)c1ccc(Cn2ccc3c(C4CCN(Cc5ncccn5)CC4)ccnc32)cc1` [Compound 966, N-hydroxy-4-((4-(1-(pyrimidin-2-ylmethyl)piperidin-4-yl)-1H-pyrrolo[2,3-b]pyridin-1-yl)methyl)benzamide], the half-inhibitory concentration (IC50) in assay [1] amounted to 3.8 nM; in assay [2], 280 nM.

For the compound `CC(C)(C)OC(=O)N1CC=C(c2cnc3c(ccn3Cc3ccc(C(=O)NO)cc3)c2)CC1` [Compound 692, tert-butyl 4-(1-(4-(hydroxycarbamoyl)benzyl)-1H-pyrrolo[2,3-b]pyridin-5-yl)-5,6-dihydropyridine-1(2H)-carboxylate], the IC50 came to 8 nM in assay [1] and 3430 nM in assay [2].

Regarding `O=C(NO)c1ccc(Cn2ccc3cc(C4CCN(CC5(C(F)(F)F)CCC5)CC4)cnc32)cc1` [Compound 724, N-hydroxy-4-((5-(1-((1-(trifluoromethyl)cyclobutyl)methyl)piperidin-4-yl)-1H-pyrrolo[2,3-b]pyridin-1-yl)methyl)benzamide], the IC50 in assay [1] was found to be 147 nM; in assay [2], 9820 nM.

With `CC(C)(F)CN1CCC(c2cnc3c(ccn3Cc3ccc(C(=O)NO)cc3)c2)CC1` [Compound 618, 4-((5-(1-(2-fluoro-2-methylpropyl)piperidin-4-yl)-1H-pyrrolo[2,3-b]pyridin-1-yl)methyl)-N-hydroxybenzamide], the half-maximal inhibitory concentration (IC50) was determined as 16 nM in assay [1] and 1300 nM in assay [2].

In the case of `O=C(NO)c1ccc(Cn2ccc3cc(-c4cnc(O)nc4)cnc32)cc1` [Compound 687, N-hydroxy-4-((5-(2-hydroxypyrimidin-5-yl)-1H-pyrrolo[2,3-b]pyridin-1-yl)methyl)benzamide], the values for the IC50 in assay [1] and in assay [2] were 61 nM and 3230 nM, respectively.

In the case of `CC(C)(O)CN1CCC(c2cnc3c(ccn3Cc3ccc(C(=O)NO)cc3)c2)CC1` [Compound 714, N-hydroxy-4-((5-(1-(2-hydroxy-2-methylpropyl)piperidin-4-yl)-1H-pyrrolo[2,3-b]pyridin-1-yl)methyl)benzamide], the results for the half-inhibitory concentration (IC50) in assay [1] and in assay [2] were 12 nM and 1200 nM, respectively.

`CN1CC=C(c2cnc3c(ccn3Cc3ccc(C(=O)NO)cc3)c2)CC1` [Compound 647, N-hydroxy-4-((5-(1-methyl-1,2,3,6-tetrahydropyridin-4-yl)-1H-pyrrolo[2,3-b]pyridin-1-yl)methyl)benzamide]: the IC50 in assay [1] was 15 nM; in assay [2], 1170 nM.

With `O=C(NO)c1ccc(Cn2ccc3cc(C4CCN(C(=O)c5cccc(CN6CCOCC6)c5)CC4)cnc32)cc1` [Compound 895, N-hydroxy-4-((5-(1-(3-(morpholinomethyl)benzoyl)piperidin-4-yl)-1H-pyrrolo[2,3-b]pyridin-1-yl)methyl)benzamide], the half-maximal inhibitory concentration (IC50) in assay [1] stood at 7.6 nM; in assay [2], 1060 nM.

On to `CC(C)(C)OC(=O)N1CC=C(c2ccnc3c2ccn3Cc2ccc(C(=O)NO)cc2)CC1` [Compound 784], for which the IC50 in assay [1] came to 16 nM; in assay [2], 930 nM.

As for `O=C(NO)c1ccc(Cn2ccc3cc(C4=CCN(CC5CCCCC5)CC4)cnc32)cc1` [Compound 721, 4-((5-(1-(cyclohexylmethyl)-1,2,3,6-tetrahydropyridin-4-yl)-1H-pyrrolo[2,3-b]pyridin-1-yl)methyl)-N-hydroxybenzamide], the IC50 came out at 19 nM in assay [1] and 1320 nM in assay [2].

Turning to `O=C(NO)c1ccc(Cn2ccc3cc(-c4ccc(F)cc4F)cnc32)cc1` [Compound 125, 4-((5-(2,4-difluorophenyl)-1H-pyrrolo[2,3-b]pyridin-1-yl)methyl)-N-hydroxybenzamide], the half-maximal inhibitory concentration (IC50) in assay [1] amounted to 52 nM; in assay [2], 1610 nM.

In the case of `COc1cccc(CN2CCC(c3cnc4c(ccn4Cc4ccc(C(=O)NO)cc4)c3)CC2)c1` [Compound 842, N-hydroxy-4-((5-(1-(3-methoxybenzyl)piperidin-4-yl)-1H-pyrrolo[2,3-b]pyridin-1-yl)methyl)benzamide], the concentration for half-maximal inhibition (IC50) amounted to 14 nM in assay [1] and 1790 nM in assay [2].

Values taken from patent publication US9650379B2 (CHONG KUN DANG PHARMACEUTICAL CORP., priority 2013, dated 2017).
